Assay results as given in US6150367A, “1-[4-arylpiperazin-1-yl]-3-[2-oxopyrrolidin/piperidin-1-yl]propanes and their use in medical treatments” (Council of Scientific & Industrial Research, priority 1997, dated 2000).

Assays:
anaesthetized cat = assay: Effect on blood pressure and adrenaline vasopressure response in anaesthetized cat, i.v. (Table 2); format: in vivo; details: for inhibition at 2 µmol/kg / inhibition at 10 µmol/kg: Felis catus, iv
Method: (§1) (a) Cats (2.6-4.0 kg) of either sex anaesthetized with pentobarbitone sodium (40 mg/kg i.v.) and showing basal mean arterial blood plessure below 150 mm (Hg) were categorised as normotensive and ahove 150 mm Hg as hypertensive. Arterial blood pressure (EP) was recorded from one of the carotid artery through a stathum P23 DC pressure transducer and 7P1 low level DC preamplifier on a Grass Model P7 Polygraph, Signals from 7P1 preamplifier were used to trigger 7P4 Tachograph preamplifier for recording the heart rate (HR). Right femoral vein and Trachea were cannulated for intravenous injections and artificial ventilation respectively. Control responses to intravenous injection of noradrenaline (2-4 ug); acetyl choline (1-2 ug); histamine (1-2 ug) and isoprenaline (1-2 ug) were taken before and after the administration of test doses of each compounds.

[1] = test system: Langendorff perfused rat heart; assay: Compound at reperfusion after brief (16 min.) ischemic insult (Table 3); details: 0.001 ug/ml at reperfusion
[2] = test system: Naturally occurring hypertensive cat; assay: Effect on blood pressure, heart rate and adrenaline vasopressor response, anaesthetized naturally occurring hypertensive cat; format: in vivo
Method: (§2) 2. Effect on blood pressure, heart rate and adrenaline vasopressor response of anaesthetized (pentobarbitone sodium 40 & 60 mg/kg i.p. in cat and rat respectively) normotensive & hypertensive rat & cat model preparations.
as §1

Normotensive cat = assay: Effect on blood pressure, heart rate and adrenaline vasopressor response, anaesthetized normotensive cat; format: in vivo
Method: as §2, §1

[3] = test system: Hypertensive rat model preparation; assay: Effect on blood pressure, heart rate and adrenaline vasopressor response, hypertensive rat model preparation; format: in vivo
Method: as §2

Spinal transected cat = assay: Site of action: spinal transected cat; format: in vivo; details: dose 2-10 umol/kg i.d.
Site of action: ICV = format: in vivo; details: dose 0.34-1.36
Isolated aortic strip = assay: Isolated aortic strip, endothelin induced contraction
Source text: (i) Isolated aortic strip:

[4] = test system: Isolated Guinea pig ileum; assay: Isolated Guinea pig ileum preparation, antihistaminic activity; details: 0.5-5.0 ug/ml
[5] = test system: histamine induced bronchoconstriction; assay: Konzett and Rossler preparation, histamine induced bronchoconstriction; details: in vivo
Source text: (iv) Konzett and Rossler preparation:

Rat aortic ring = Rat aortic ring preparation, NE induced contraction
Source text: (v) Rat aortic ring preparation:

cat [6] = assay: In vivo drug antagonism studies at 2 uMol dose i.v. in cat; details: 2 uMol i.v.
Source text: (B) In viva Drug antagonism studies at 2 uMol dose i.v. in cat: […]

cat [7] = assay: Comparative antihypertensive effect with clinically used antihypertensive drugs at 2 uMol/kg i.v. in cat; format: in vivo
Source text: (4) Comparative antihypertensive effect with clinically used antihypertensive drugs at 2 uMol/kg i.v. dose in cat

[8] = Cardioprotective effect against myocardial stunning; details: in vivo
[9] = test system: Langendorff perfused rat heart; assay: Langendorff perfused rat heart, prolonged global ischemia, compound given at reperfusion (Table 1)
Method: Further, in Langendorff perfused rat heart preparation subjected to even upto […]. global ischemia, the compound at 0.001 ug/ml conc. given at the time of reperfusion revived normal rhythmic contraction started within […]. (Table 1) and incidence of reperfusion induced arrhythmia were abolished.

[10] = 0.001 ug/ml at reperfusion, 90 min. ischemic insult
[11] = 10^-6 M, ischemic insult 45 min

O=C1CCCN1CCCN1CCN(c2ccccn2)CC1 [2-Pyridyl, n=1]
Dur. (anaesthetized cat; 2.0 umol/kg i.v.): 16 min
Dur. (anaesthetized cat; 10.0 umol/kg i.v.): 43 min
inhibition at 2 µmol/kg (anaesthetized cat; 2.0 umol/kg i.v.): 40%
inhibition at 10 µmol/kg (anaesthetized cat; 10.0 umol/kg i.v.): -20 to 0%
Onset [1]: 2.0 min
Percentage recovery 15 min. [1]: 47.60%
Percentage recovery 30 min. [1]: 71.40%

COc1ccccc1N1CCN(CCCN2CCCC2=O)CC1 [C6 H4-2-OCH3, n=1]
Dur. (anaesthetized cat; 2.0 umol/kg i.v.): 19 min
Dur. (anaesthetized cat; 10.0 umol/kg i.v.): 67 min
inhibition at 2 µmol/kg (anaesthetized cat; 2.0 umol/kg i.v.): 47%
inhibition at 10 µmol/kg (anaesthetized cat; 10.0 umol/kg i.v.): > 100%
Onset [1]: 2.0 min
Percentage recovery 15 min. [1]: 45.40%
Percentage recovery 30 min. [1]: 59.09%

O=C1CCCN1CCCN1CCN(c2cccc(Cl)c2)CC1 [Example 2, 1-[4-(3-chlorophenyl)piperazin-1-yl]-3-[2-oxopyrrolidin-1-yl]propane]
Percentage recovery 15 min. ([1]; listed as C6 H4 -3-C1, n=1): 50.00%
Percentage recovery 30 min. ([1]; listed as C6 H4 -3-C1, n=1): 88.80%
Onset ([1]; listed as C6 H4 -3-Cl, n=1): 3.0 min
Percentage recovery 15 min. ([1]; listed as C6 H4 -3-Cl, n=1): 31.50%
Percentage recovery 30 min. ([1]; listed as C6 H4 -3-Cl, n=1): 39.40%

O=C1CCCN1CCCN1CCN(c2ccc(Cl)cc2)CC1 [Example 3, 1-[4-(4-chlorophenyl)piperazin-1-yl]-3-[2-oxopyrrolidin-1-yl]propane]
Percentage recovery 15 min. [1]: 87.50%
Percentage recovery 30 min. [1]: 120.80%

O=C1CCCN1CCCN1CCN(c2cccc(F)c2)CC1 [Example 4, 1-[4-(3-fluorophenyl)piperazin-1-yl)-3-[2-oxopyrrolidin-1-yl]propane]
Percentage recovery 15 min. [1]: 120.00%
Percentage recovery 30 min. [1]: 180.00%

O=C1CCCN1CCCN1CCN(c2ccc(F)cc2)CC1 [Example 5, 1-[4-(4-fluorophenyl)piperazin-1-yl]-3-[2-oxopyrrolidin-1-yl]propane]
B.P. Fall (%) ([2]; 10 uMol/kg i.d.): 16%
B.P. fall Dur. ([2]; 10 uMol/kg i.d.): 110 min
B.P. Fall (%) ([2]; 20 uMol/kg i.d.): 22%
B.P. fall Dur. ([2]; 20 uMol/kg i.d.): > 156.75 min
B.P. Fall (%) (Normotensive cat; 10 uMol/kg i.d.): 22%
B.P. fall Dur. (Normotensive cat; 10 uMol/kg i.d.): 85 min
B.P. Fall (%) (Normotensive cat; 20 uMol/kg i.d.): 21%
B.P. fall Dur. (Normotensive cat; 20 uMol/kg i.d.): > 102.5 min
B.P. Fall (%) ([3]; 5 uMol/kg i.d.): 27%
B.P. fall Dur. ([3]; 5 uMol/kg i.d.): 51 min
Heart rate Pre treatment ([3]; 5 uMol/kg i.d.): 350 beats/min
Heart rate post treatment ([3]; 5 uMol/kg i.d.): 370 beats/min
B.P. Fall (%) ([3]; 10 uMol/kg i.d.): 22%
B.P. fall Dur. ([3]; 10 uMol/kg i.d.): 76 min
B.P. Fall (%) ([3]; 20 uMol/kg i.d.): 29%
B.P. fall Dur. ([3]; 20 uMol/kg i.d.): 100 min
B.P. Fall (%) (Spinal transected cat): 14-18%
B.P. fall Dur. (Spinal transected cat): 15 to 30 min
B.P. Fall (%) (Site of action: ICV): 8-10%
B.P. fall Dur. (Site of action: ICV): 10 to 15 min
Endothelin induced contraction (Isolated aortic strip): inhibited significantly
Response to endothelin after washing the preparation (Isolated aortic strip; after washing): relaxation rather than contraction
antihistaminic activity [4]: significant antihistaminic activity
antihistaminic activity against histamine induced bronchoconstriction [5]: some antihistaminic activity
NE induced contraction (Rat aortic ring): inhibited
reduction of the fall in pressure (cat [6]; pretreatment with KATP blocker glibenclamide): only partially reduced
alteration of antihypertensive effect (cat [6]; pretreatment with atropine sulphate, mepyramine maleate, propranolol or yohimbine): failed to alter
Dur. (cat [7]): 25 min
cardioprotective effect against myocardial stunning [8]: cardioprotective effect against myocardial stunning at a much smaller dose than antihypertensive dose
Percentage recovery 15 min. [9, 10]: 81.25%
Percentage recovery 30 min. [9, 10]: 87.15%
incidence of reperfusion induced arrhythmia ([9]; 0.001 ug/ml at reperfusion, up to 90 min global ischemia): abolished
Percentage recovery 15 min. [1]: 81.25%
Percentage recovery 30 min. [1]: 78.12%

CCc1ccc(N2CCN(CCCN3CCCC3=O)CC2)cc1 [Example 6, 1-[4-(4-ethylphenyl)piperazin-1-yl]-3-[2-oxopyrrolidin-1-yl]propane]
Percentage recovery 15 min. [1]: 103.03%
Percentage recovery 30 min. [1]: 60.60%

CCc1ccccc1N1CCN(CCCN2CCCC2=O)CC1 [Example 7, 1-[4-(2-ethylphenyl)piperazin-1-Yl]-3-[2-oxopyrrolidin-1-yl]propane]
Percentage recovery 15 min. [1]: 106.06%
Percentage recovery 30 min. [1]: 136.36%

O=C1CCCCN1CCCN1CCN(c2cccc(C(F)(F)F)c2)CC1 [Example 14, 1-[4-(3-trifluoromethylphenyl)piperazin-1-yl]-3-[2-oxopiperidin-1-yl]propane]
Dur. (min.) (anaesthetized cat; 10.0 umol/kg i.v.): Tr

COC(=O)C1=C(C)NC(C)=C(C(=O)OC)C1c1ccccc1[N+](=O)[O-] [Nifedipine, reference compound]
Percentage recovery 15 min. [9, 11]: 0.66%
Percentage recovery 30 min. [9, 11]: 0.0%
